Source: PubChem BioAssay (NCI)
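Method: 48-hour compound exposure of cells in 96-well plates, five concentrations, linear interpolation of endpoints. GI50 is the concentration that inhibits growth by half. At the TGI there is no net growth.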

Columns and labels:
Experiment in all cases: inhibition of tumour cell growth, NCI panel, 48 h
SF-268 CNS = tested on: SF-268 CNS
SK-MEL-28 melanoma = tested on: SK-MEL-28 melanoma
MDA-MB-231 breast = tested on: MDA-MB-231 breast
CCRF-CEM leukemia = tested on: CCRF-CEM leukemia
SK-OV-3 ovarian = tested on: SK-OV-3 ovarian
HL-60(TB) leukemia = tested on: HL-60(TB) leukemia
NCI-H23 lung = tested on: NCI-H23 lung
SW-620 colon = tested on: SW-620 colon
DU-145 prostate = tested on: DU-145 prostate
IGROV1 ovarian = tested on: IGROV1 ovarian
T-47D breast = tested on: T-47D breast
LOX IMVI melanoma = tested on: LOX IMVI melanoma
M14 melanoma = tested on: M14 melanoma
OVCAR-5 ovarian = tested on: OVCAR-5 ovarian
MDA-MB-435 = tested on: MDA-MB-435
UACC-257 melanoma = tested on: UACC-257 melanoma
SN12C renal = tested on: SN12C renal
A549 NSCLC = tested on: A549 NSCLC
SF-295 CNS = tested on: SF-295 CNS
MCF7 breast = tested on: MCF7 breast
RXF 393 renal = tested on: RXF 393 renal
NCI-H226 lung = tested on: NCI-H226 lung
PC-3 prostate = tested on: PC-3 prostate
OVCAR-8 ovarian = tested on: OVCAR-8 ovarian
OVCAR-3 ovarian = tested on: OVCAR-3 ovarian
SNB-19 CNS = tested on: SNB-19 CNS
NCI-H522 lung = tested on: NCI-H522 lung
UO-31 renal = tested on: UO-31 renal
OVCAR-4 ovarian = tested on: OVCAR-4 ovarian
U251 CNS = tested on: U251 CNS
RPMI-8226 leukemia = tested on: RPMI-8226 leukemia
EKVX NSCLC = tested on: EKVX NSCLC
CAKI-1 renal = tested on: CAKI-1 renal
SK-MEL-5 melanoma = tested on: SK-MEL-5 melanoma
SF-539 CNS = tested on: SF-539 CNS
NCI-H460 lung = tested on: NCI-H460 lung
MALME-3M melanoma = tested on: MALME-3M melanoma
786-0 renal = tested on: 786-0 renal
HS 578T breast = tested on: HS 578T breast
NCI/ADR-RES ovarian = tested on: NCI/ADR-RES ovarian
UACC-62 melanoma = tested on: UACC-62 melanoma
A498 renal = tested on: A498 renal
K-562 leukemia = tested on: K-562 leukemia
HOP-62 NSCLC = tested on: HOP-62 NSCLC
MOLT-4 leukemia = tested on: MOLT-4 leukemia
COLO 205 colon = tested on: COLO 205 colon
SR leukemia = tested on: SR leukemia
KM12 colon = tested on: KM12 colon
HCT-116 colon = tested on: HCT-116 colon
TK-10 renal = tested on: TK-10 renal
HCT-15 colon = tested on: HCT-15 colon
HOP-92 NSCLC = tested on: HOP-92 NSCLC
HT29 colon = tested on: HT29 colon
ACHN renal = tested on: ACHN renal
SNB-75 CNS = tested on: SNB-75 CNS
SK-MEL-2 melanoma = tested on: SK-MEL-2 melanoma

## Cc1cccc(NC2=C(Cl)C(=O)N(Cc3ccc(Cl)cc3)C2=O)c1
SF-268 CNS
  GI50: 4.93 µM
  TGI: > 100 µM
SK-MEL-28 melanoma
  GI50: 3.88 µM
  TGI: 22.8 µM
MDA-MB-231 breast
  GI50: 2.27 µM
  TGI: 8.77 µM
CCRF-CEM leukemia
  GI50: 0.214 µM
  TGI: 1.78 µM
SK-OV-3 ovarian
  GI50: 3.51 µM
  TGI: 18.7 µM
HL-60(TB) leukemia
  GI50: 4.83 µM
  TGI: 20.3 µM
NCI-H23 lung
  GI50: 1.64 µM
  TGI: 10.7 µM
SW-620 colon
  GI50: 2.23 µM
  TGI: 12.9 µM
DU-145 prostate
  GI50: 9.97 µM
  TGI: 60.2 µM
IGROV1 ovarian
  GI50: 2.25 µM
  TGI: 12.1 µM
T-47D breast
  GI50: 3.47 µM
  TGI: 28.9 µM
LOX IMVI melanoma
  GI50: 2.88 µM
  TGI: 16 µM
M14 melanoma
  GI50: 4.33 µM
  TGI: 19.9 µM
OVCAR-5 ovarian
  GI50: 28 µM
  TGI: 74.5 µM
MDA-MB-435
  GI50: 4.74 µM
  TGI: 19 µM
UACC-257 melanoma
  GI50: 16.6 µM
  TGI: 47.9 µM
SN12C renal
  GI50: 4.37 µM
  TGI: 43.6 µM
A549 NSCLC
  GI50: 12.5 µM
  TGI: 34.2 µM
SF-295 CNS
  GI50: 5.8 µM
  TGI: 27.4 µM
MCF7 breast
  GI50: 3.17 µM
  TGI: > 100 µM
RXF 393 renal
  GI50: 7.72 µM
  TGI: 27.6 µM
NCI-H226 lung
  GI50: 1.2 µM
  TGI: 8.04 µM
PC-3 prostate
  GI50: 2.1 µM
  TGI: 8.67 µM
OVCAR-8 ovarian
  GI50: 6.46 µM
  TGI: 23.8 µM
OVCAR-3 ovarian
  GI50: 7.19 µM
  TGI: 21 µM
SNB-19 CNS
  GI50: 2.94 µM
  TGI: 25.8 µM
NCI-H522 lung
  GI50: 3.09 µM
  TGI: 13.1 µM
UO-31 renal
  GI50: 11.9 µM
  TGI: > 100 µM
OVCAR-4 ovarian
  GI50: 3.84 µM
  TGI: 40.4 µM
U251 CNS
  GI50: 4.08 µM
  TGI: > 100 µM
RPMI-8226 leukemia
  GI50: 1.07 µM
  TGI: 3.2 µM
EKVX NSCLC
  GI50: 7.15 µM
  TGI: 27.1 µM
CAKI-1 renal
  GI50: 4.61 µM
  TGI: 24.6 µM
SK-MEL-5 melanoma
  GI50: 2.23 µM
  TGI: 7.76 µM
SF-539 CNS
  GI50: 2.11 µM
  TGI: 13.6 µM
NCI-H460 lung
  GI50: 2.81 µM
  TGI: 33.9 µM
MALME-3M melanoma
  GI50: 3.25 µM
  TGI: 22.7 µM
786-0 renal
  GI50: 2.16 µM
  TGI: 14.8 µM
HS 578T breast
  GI50: 7.35 µM
  TGI: 37.3 µM
NCI/ADR-RES ovarian
  GI50: 1.56 µM
  TGI: 8.03 µM
UACC-62 melanoma
  GI50: 4.89 µM
  TGI: 29.9 µM
A498 renal
  GI50: 2 µM
  TGI: 5.14 µM
K-562 leukemia
  GI50: 3.63 µM
  TGI: 13.9 µM
HOP-62 NSCLC
  GI50: 3.88 µM
  TGI: 15 µM
MOLT-4 leukemia
  GI50: 3.14 µM
  TGI: 12.4 µM
COLO 205 colon
  GI50: 3.08 µM
  TGI: 15 µM
SR leukemia
  GI50: 1.79 µM
  TGI: 4.88 µM
KM12 colon
  GI50: 3.27 µM
  TGI: 16.9 µM
HCT-116 colon
  GI50: 2.94 µM
  TGI: 10.8 µM
TK-10 renal
  GI50: 3.8 µM
  TGI: 21 µM

## COc1ccc(F)cc1/C=C/C(=O)/C=C(/C=C/c1cc(F)ccc1OC)OB(F)F
MDA-MB-231 breast
  GI50: 2.17 µM
  TGI: 6.1 µM
CCRF-CEM leukemia
  GI50: 0.261 µM
  TGI: 0.679 µM
HCT-15 colon
  GI50: 1.27 µM
  TGI: 2.93 µM
SK-OV-3 ovarian
  GI50: 3.48 µM
  TGI: > 100 µM
HOP-92 NSCLC
  GI50: 2.04 µM
  TGI: 4.62 µM
HT29 colon
  GI50: 1.85 µM
  TGI: 4.79 µM
ACHN renal
  GI50: 1.02 µM
  TGI: 2.37 µM
NCI-H23 lung
  GI50: 1.46 µM
  TGI: 4.05 µM
SNB-75 CNS
  GI50: 1.61 µM
  TGI: 4.86 µM
DU-145 prostate
  GI50: 2.06 µM
  TGI: > 100 µM
IGROV1 ovarian
  GI50: 2.04 µM
  TGI: 6.05 µM
T-47D breast
  GI50: 2.17 µM
  TGI: 96.6 µM
LOX IMVI melanoma
  GI50: 1.25 µM
  TGI: 2.56 µM
MDA-MB-435
  GI50: 1.47 µM
  TGI: 5.02 µM
UACC-257 melanoma
  GI50: 2.03 µM
  TGI: 7.48 µM
SN12C renal
  GI50: 1.64 µM
  TGI: 4.83 µM
PC-3 prostate
  GI50: 1.5 µM
  TGI: 3.89 µM
OVCAR-8 ovarian
  GI50: 0.513 µM
  TGI: 5.23 µM
UO-31 renal
  GI50: 1.13 µM
  TGI: 2.47 µM
OVCAR-4 ovarian
  GI50: 2.33 µM
  TGI: > 100 µM
SK-MEL-2 melanoma
  GI50: 2.55 µM
  TGI: 7 µM
CAKI-1 renal
  GI50: 1.14 µM
  TGI: 2.44 µM
SF-539 CNS
  GI50: 2.4 µM
  TGI: 6.68 µM
MALME-3M melanoma
  GI50: 2.05 µM
  TGI: 9.12 µM
HS 578T breast
  GI50: 3.13 µM
  TGI: > 100 µM
NCI/ADR-RES ovarian
  GI50: 1.66 µM
  TGI: 6.41 µM
UACC-62 melanoma
  GI50: 1.27 µM
  TGI: 2.9 µM
MOLT-4 leukemia
  GI50: 0.321 µM
  TGI: 4.75 µM
SR leukemia
  GI50: 0.481 µM
  TGI: 23.4 µM
HCT-116 colon
  GI50: 1.39 µM
  TGI: 4.21 µM
